Experimental data published in patent publication US8987195B2 (priority 2012, dated 2015).

biological target: HCV NS3/4A protease genotype 1b (Hepatitis C virus genotype 1b, UniProt P26663); experiment: HCV NS3/4A protease time-resolved fluorescence (TRF) assay, Ki against genotype 1b; assay type: biochemical; conditions: IC50 [gt-1b] (nM), NS3/4A genotype 1b, enzyme 0.2 nM
Description: Measuring NS3/4A Inhibitory Activity (Ki) Against Genotype 1b, Against A156T Mutants and Against Genotype 3a
One assay for measuring inhibitory activity is HCV NS3 protease time-resolved fluorescence (TRF) assay as described below and in Mao et al., Anal. Biochem. 373:1-8, 2008 and International Patent Application Publication WO 2006/102087. A NS3 protease assay can be performed, for example, in a final volume of 20 μl assay buffer containing 50 mM HEPES, pH 7.5, 150 mM NaCl, 15% glycerol, 0.15% TRITON X-100, 10 mM DTT, and 0.1% PEG 8000. NS3 and NS4A protease is pre-incubated with various concentrations of inhibitors in DMSO for 30 min. The reaction is initiated by adding the TRF peptide substrate (final concentration 25 nM). NS3 mediated hydrolysis of the substrate was run for 2.5 hours at room temperature. Product fluorescence is detected using A Pherastar Plus plate reader (BMG) or Envision (Perkin Elmer Life and Analytical Sciences with excitation at 340 nm and emission at 615 nm using the appropriate delay time optimized for the europium fluorescence probe. Testing concentrations of different enzyme forms are selected to result in a signal to background ratio (S/B) of 10-30. IC50 values are derived using a standard four-parameter fit to the data. Ki values are derived from IC50 values using the following formula, IC50=Ki(1+[S]/KM), Eqn (1), where [S] is the concentration of substrate peptide in the reaction and KM is the Michaelis constant. See P. Gallinari et al., 38 BIOCHEM. 5620-32 (1999); P. Gallinari et al., 72 J. VIROL. 6758-69 (1998); M. Taliani et al., 240 ANAL. BIOCHEM. 60-67 (1996); Mao et al., Analytical Biochemistry 373: 1-8, 2008.
The assay described above was run against genotype 1b at a concentration of 0.2 nM, against A156T mutant strains at a concentration of 0.4 nM, and against genotype 3a at a concentration of 0.025 nM.

Row | SMILES | IC50
1 | Cc1nc2ccc(OC(F)(F)F)cc2c2c1O[C@@]1(C[C@H]3C(=O)N[C@]4(C(=O)NS(=O)(=O)C5(C)CC5)C[C@H]4/C=C\CCCCC[C@H](NC(=O)OC(C)(C)C)C(=O)N3C1)CC2(F)F [Example 220, tert-butyl [(2S,6S,12Z,13aS,14aR,16aS)-1′,1′-difluoro-5′-methyl-14a-{[(1-methylcyclopropyl)sulfonyl]carbamoyl}-5,16-dioxo-9′-(trifluoromethoxy)-1,1′,2′,5,6,7,8,9,10,11,13a,14,14a,15,16,16a-hexadecahydrospiro[cyclopropa[e]pyrrolo[1,2-a][1,4]diazacyclopentadecine-2,3′-pyrano[2,3-c]quinolin]-6-yl]carbamate] | 0.033 nM
2 | COc1ccc2nc(C3CC3)c3c(c2c1)C(F)(F)C[C@]1(C[C@H]2C(=O)N[C@]4(C(=O)NS(=O)(=O)C5(C)CC5)C[C@H]4/C=C\CCCCC[C@H](NC(=O)OC4CCCC4)C(=O)N2C1)O3 [Example 247, cyclopentyl [(2S,6S,12Z,13aS,14aR,16aS)-5′-cyclopropyl-1′,1′-difluoro-9′-methoxy-14a-{[(1-methylcyclopropyl)sulfonyl]carbamoyl}-5,16-dioxo-1,1′,2′,5,6,7,8,9,10,11,13a,14,14a,15,16,16a-hexadecahydrospiro[cyclopropa[e]pyrrolo[1,2-a][1,4]diazacyclopentadecine-2,3′-pyrano[2,3-c]quinolin]-6-yl]carbamate] | 0.013 nM
3 | Cc1nc2ccc(C(F)(F)F)cc2c2c1O[C@]1(CC2)C[C@H]2C(=O)N[C@]3(C(=O)NS(=O)(=O)C4(C)CC4)C[C@H]3/C=C\CCCCC[C@H](NC(=O)OCC(C)C)C(=O)N2C1 [Example 253, 2-methylpropyl [(2R,6S,12Z,13aS,14aR,16aS)-5′-methyl-14a-{[(1-methylcyclopropyl)sulfonyl]carbamoyl}-5,16-dioxo-9′-(trifluoromethyl)-1,1′,2′,5,6,7,8,9,10,11,13a,14,14a,15,16,16a-hexadecahydrospiro[cyclopropa[e]pyrrolo[1,2-a][1,4]diazacyclopentadecine-2,3′-pyrano[2,3-c]quinolin]-6-yl]carbamate] | 0.014 nM

same assay, conditions: IC50 [gt-1b] (nM), NS3/4A genotype 1b, enzyme 0.2 nM; K+ salt

Row | SMILES | IC50
4 | COc1ccc2nc(C)c3c(c2c1)CC[C@]1(C[C@H]2C(=O)N[C@]4(C(=O)NS(=O)(=O)C5(C)CC5)C[C@H]4/C=C\CCCCC[C@H](NC(=O)O[C@H](C)C(C)C)C(=O)N2C1)O3 [Example 214, (2R)-3-methylbutan-2-yl [(2R,6S,12Z,13aS,14aR,16aS)-9′-methoxy-5′-methyl-14a-{[(1-methylcyclopropyl)sulfonyl]carbamoyl}-5,16-dioxo-1,1′,2′,5,6,7,8,9,10,11,13a,14,14a,15,16,16a-hexadecahydrospiro[cyclopropa[e]pyrrolo[1,2-a][1,4]diazacyclopentadecine-2,3′-pyrano[2,3-c]quinolin]-6-yl]carbamate] | 0.005 nM
5 | COc1ccc2nc(C)c3c(c2c1)CC[C@]1(C[C@H]2C(=O)N[C@]4(C(=O)NS(=O)(=O)C5(C)CC5)C[C@H]4/C=C\CCCCC[C@H](NC(=O)O[C@@H](C)C(C)C)C(=O)N2C1)O3 [Example 215, (2S)-3-methylbutan-2-yl [(2R,6S,12Z,13aS,14aR,16aS)-9′-methoxy-5′-methyl-14a-{[(1-methylcyclopropyl)sulfonyl]carbamoyl}-5,16-dioxo-1,1′,2′,5,6,7,8,9,10,11,13a,14,14a,15,16,16a-hexadecahydrospiro[cyclopropa[e]pyrrolo[1,2-a][1,4]diazacyclopentadecine-2,3′-pyrano[2,3-c]quinolin]-6-yl]carbamate] | 0.005 nM

same assay, conditions: IC50 [gt-1b], NS3/4A protease TRF assay, genotype 1b enzyme 0.2 nM

Row | SMILES | IC50
6 | Cc1ccc2nc(C(F)(F)F)c3c(c2c1)CC[C@]1(C[C@H]2C(=O)N[C@]4(C(=O)NS(=O)(=O)C5(C)CC5)C[C@H]4/C=C\CCCCC[C@H](NC(=O)OCC(C)(C)C)C(=O)N2C1)O3 [Example 391, 2,2-dimethylpropyl [(2R,6S,12Z,13aS,14aR,16aS)-9′-methyl-14a-{[(1-methylcyclopropyl)sulfonyl]carbamoyl}-5,16-dioxo-5′-(trifluoromethyl)-1,1′,2′,5,6,7,8,9,10,11,13a,14,14a,15,16,16a-hexadecahydrospiro[cyclopropa[e]pyrrolo[1,2-a][1,4]diazacyclopentadecine-2,3′-pyrano[2,3-c]quinolin]-6-yl]carbamate] | 0.026 nM
7 | Cc1ccc2nc(C(F)(F)F)c3c(c2c1)CC[C@]1(C[C@H]2C(=O)N[C@]4(C(=O)NS(=O)(=O)C5(C)CC5)C[C@H]4/C=C\CCCCC[C@H](NC(=O)OC4CCCC4)C(=O)N2C1)O3 [Example 392, cyclopentyl [(2R,6S,12Z,13aS,14aR,16aS)-9′-methyl-14a-{[(1-methylcyclopropyl)sulfonyl]carbamoyl}-5,16-dioxo-5′-(trifluoromethyl)-1,1′,2′,5,6,7,8,9,10,11,13a,14,14a,15,16,16a-hexadecahydrospiro[cyclopropa[e]pyrrolo[1,2-a][1,4]diazacyclopentadecine-2,3′-pyrano[2,3-c]quinolin]-6-yl]carbamate] | 0.014 nM
8 | Cc1ccc2nc(C(F)(F)F)c3c(c2c1)CC[C@]1(C[C@H]2C(=O)N[C@]4(C(=O)NS(=O)(=O)C5(C)CC5)C[C@H]4/C=C\CCCCC[C@H](NC(=O)OC(C)(C)C(F)(F)F)C(=O)N2C1)O3 [Example 393, 1,1,1-trifluoro-2-methylpropan-2-yl [(2R,6S,12Z,13aS,14aR,16aS)-9′-methyl-14a-{[(1-methylcyclopropyl)sulfonyl]carbamoyl}-5,16-dioxo-5′-(trifluoromethyl)-1,1′,2′,5,6,7,8,9,10,11,13a,14,14a,15,16,16a-hexadecahydrospiro[cyclopropa[e]pyrrolo[1,2-a][1,4]diazacyclopentadecine-2,3′-pyrano[2,3-c]quinolin]-6-yl]carbamate] | 0.026 nM
9 | Cc1nc2ccccc2c2c1O[C@]1(CC2)C[C@H]2C(=O)N[C@]3(C(=O)NS(=O)(=O)C4(C)CC4)C[C@H]3/C=C\CCCCC[C@H](Nc3nc(C4CC4)no3)C(=O)N2C1 [Example 394, (2R,6S,12Z,13aS,14aR,16aS)-6-[(3-cyclopropyl-1,2,4-oxadiazol-5-yl)amino]-5′-methyl-N-[(1-methylcyclopropyl)sulfonyl]-5,16-dioxo-1,1′,2′,6,7,8,9,10,11,13a,14,15,16,16a-tetradecahydrospiro[cyclopropa[e]pyrrolo[1,2-a][1,4]diazacyclopentadecine-2,3′-pyrano[2,3-c]quinoline]-14a(5H)-carboxamide] | 0.057 nM
10 | Cc1ccc2nc(C(F)(F)F)c3c(c2c1)CC[C@]1(C[C@H]2C(=O)N[C@]4(C(=O)NS(=O)(=O)C5(C)CC5)C[C@H]4/C=C\CCCCC[C@H](NC(=O)O[C@H](C)C(C)C)C(=O)N2C1)O3 [Example 395, (2R)-3-methylbutan-2-yl [(2R,6S,12Z,13aS,14aR,16aS)-9′-methyl-14a-{[(1-methylcyclopropyl)sulfonyl]carbamoyl}-5,16-dioxo-5′-(trifluoromethyl)-1,1′,2′,5,6,7,8,9,10,11,13a,14,14a,15,16,16a-hexadecahydrospiro[cyclopropa[e]pyrrolo[1,2-a][1,4]diazacyclopentadecine-2,3′-pyrano[2,3-c]quinolin]-6-yl]carbamate] | 0.014 nM
11 | Cc1ccc2nc(C(F)(F)F)c3c(c2c1)CC[C@]1(C[C@H]2C(=O)N[C@]4(C(=O)NS(=O)(=O)C5(C)CC5)C[C@H]4/C=C\CCCCC[C@H](NC(=O)O[C@@H](C)C(C)C)C(=O)N2C1)O3 [Example 396, (2S)-3-methylbutan-2-yl [(2R,6S,12Z,13aS,14aR,16aS)-9′-methyl-14a-{[(1-methylcyclopropyl)sulfonyl]carbamoyl}-5,16-dioxo-5′-(trifluoromethyl)-1,1′,2′,5,6,7,8,9,10,11,13a,14,14a,15,16,16a-hexadecahydrospiro[cyclopropa[e]pyrrolo[1,2-a][1,4]diazacyclopentadecine-2,3′-pyrano[2,3-c]quinolin]-6-yl]carbamate] | 0.009 nM
12 | [2H]C([2H])(F)Oc1ccc2nc(C)c3c(c2c1)[C@H](F)C[C@]1(C[C@H]2C(=O)N[C@]4(C(=O)NS(=O)(=O)C5(C)CC5)C[C@H]4/C=C\CCCCC[C@H](NC(=O)OC(C)(C)C)C(=O)N2C1)O3 [Example 397, tert-butyl [(1′R,2S,6S,12Z,13aS,14aR,16aS)-1′-fluoro-9′-{[fluoro(^2H2)methyl]oxy}-5′-methyl-14a-{[(1-methylcyclopropyl)sulfonyl]carbamoyl}-5,16-dioxo-1,1′,2′,5,6,7,8,9,10,11,13a,14,14a,15,16,16a-hexadecahydrospiro[cyclopropa[e]pyrrolo[1,2-a][1,4]diazacyclopentadecine-2,3′-pyrano[2,3-c]quinolin]-6-yl]carbamate] | 0.006 nM
